Here are results for 15 compounds from ChEMBL document CHEMBL5042493, “Enhancing monoamine oxidase B inhibitory activity via chiral fluorination: Structure-activity relationship, biological evaluation, and molecular docking study” (Eur J Med Chem, 2022).

pIC50: −log10 of the molar value.

The target in data set [1] is T1, Amine oxidase [flavin-containing] A (Homo sapiens, UniProt P21397).
T1 sequence (P21397 whole entry): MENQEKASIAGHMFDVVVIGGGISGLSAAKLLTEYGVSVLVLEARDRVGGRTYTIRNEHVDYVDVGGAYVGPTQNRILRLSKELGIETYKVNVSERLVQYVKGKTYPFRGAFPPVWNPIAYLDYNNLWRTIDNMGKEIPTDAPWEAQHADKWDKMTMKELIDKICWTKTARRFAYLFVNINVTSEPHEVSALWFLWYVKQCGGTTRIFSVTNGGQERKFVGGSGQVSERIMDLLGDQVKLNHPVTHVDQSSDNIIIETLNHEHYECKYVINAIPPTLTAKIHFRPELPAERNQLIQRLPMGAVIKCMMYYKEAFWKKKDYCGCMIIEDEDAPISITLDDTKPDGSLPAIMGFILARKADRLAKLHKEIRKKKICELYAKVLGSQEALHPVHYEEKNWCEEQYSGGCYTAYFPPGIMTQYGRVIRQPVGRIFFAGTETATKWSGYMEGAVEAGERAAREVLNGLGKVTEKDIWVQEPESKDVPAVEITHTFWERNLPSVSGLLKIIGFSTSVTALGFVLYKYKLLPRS
As to the kind of experiment: Inhibition of recombinant human MAO-A expressed in Sf9 cells preincubated for 15 min followed by addition of p-tyramine and measured after 60 min by Luminex assay.

For a further data set, the species on record is Homo sapiens. As to the kind of experiment: Selectivity index, ratio of IC50 for recombinant human MAO-A expressed in Sf9 cells to IC50 for recombinant human MAO-B expressed in Sf9 cells.
Data set [2] in a line: AUC (0-t) in Sprague dawley rat at 1 mg/kg, iv measured upto 24 hrs. Type of data set: ADME, organism-based. Also on record: route intravenous, dose 1 mg/kg, time <=24. The conditions noted are these: in vivo.
The nature of data set [3]: Oral bioavailability in Sprague dawley rat at 5 mg/kg measured upto 24 hrs. The conditions noted are these: in vivo. Type of data set: ADME, organism-based.
Data set [4] can be described thus: Cmax in Sprague dawley rat at 5 mg/kg, po measured upto 24 hrs. Type of data set: ADME, organism-based. Also on record: route oral, dose 5 mg/kg, time <=24. The following applies: in vivo.
Data set [5] in a line: AUC (0-t) in Sprague dawley rat at 5 mg/kg, po measured upto 24 hrs. Type of data set: ADME, organism-based. More on the design: route oral, dose 5 mg/kg, time <=24. The following applies: in vivo.
Data set [6] in a line: Half life in Sprague dawley rat at 5 mg/kg, po measured upto 24 hrs. Type of data set: ADME, organism-based. The conditions noted are these: in vivo.
The nature of data set [7]: Volume of distribution at steady state in Sprague dawley rat at 1 mg/kg, iv measured upto 24 hrs. Type of data set: ADME, organism-based. The conditions noted are these: in vivo, read-out: Vdss.
Data set [8] is described as follows: Cmax in Sprague dawley rat at 1 mg/kg, iv measured upto 24 hrs. Type of data set: ADME, organism-based. Also on record: route intravenous, dose 1 mg/kg, time <=24. The conditions noted are these: in vivo.
Data set [9] can be described thus: Clearance in Sprague dawley rat at 1 mg/kg, iv measured upto 24 hrs. Type of data set: ADME, organism-based. The following applies: in vivo.
Data set [10] can be described thus: Half life in Sprague dawley rat at 1 mg/kg, iv measured upto 24 hrs. Type of data set: ADME, organism-based. The conditions noted are these: in vivo.
Data set [11] concerns the target T2, Amine oxidase [flavin-containing] B (Homo sapiens, UniProt P27338).
T2 sequence (P27338 whole entry): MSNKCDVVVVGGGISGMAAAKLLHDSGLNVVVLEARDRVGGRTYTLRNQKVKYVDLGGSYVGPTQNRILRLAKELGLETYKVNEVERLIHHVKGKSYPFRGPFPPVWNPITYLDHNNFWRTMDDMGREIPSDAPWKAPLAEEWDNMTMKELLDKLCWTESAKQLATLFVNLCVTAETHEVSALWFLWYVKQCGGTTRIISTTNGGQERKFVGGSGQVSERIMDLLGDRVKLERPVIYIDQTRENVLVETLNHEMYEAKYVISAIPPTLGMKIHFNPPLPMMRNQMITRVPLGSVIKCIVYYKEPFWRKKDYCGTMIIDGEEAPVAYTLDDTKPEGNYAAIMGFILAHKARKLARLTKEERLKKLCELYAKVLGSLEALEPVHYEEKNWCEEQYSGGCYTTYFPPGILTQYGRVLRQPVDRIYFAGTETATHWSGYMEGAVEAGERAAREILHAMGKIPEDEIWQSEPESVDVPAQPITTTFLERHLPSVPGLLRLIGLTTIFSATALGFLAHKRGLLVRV
As to the kind of experiment: Inhibition of recombinant human MAO-B expressed in Sf9 cells preincubated for 15 min followed by addition of benzylamine and measured after 60 min by Luminex assay.

A short description of data set [12]: Cmax in Cynomolgus monkey rat at 5 mg/kg, po measured upto 24 hrs. Type of data set: ADME, organism-based, Macaca fascicularis. More on the design: route oral, dose 5 mg/kg, time <=24. The conditions noted are these: in vivo.
The nature of data set [13]: AUC (0-t) in Cynomolgus monkey rat at 5 mg/kg, po measured upto 24 hrs. More on the design: route oral, dose 5 mg/kg, time <=24. Type of data set: ADME, organism-based, Macaca fascicularis. The conditions noted are these: in vivo.
The nature of data set [14]: Half life in Cynomolgus monkey at 1 mg/kg, iv measured upto 24 hrs. Type of data set: ADME, organism-based, Macaca fascicularis. The conditions noted are these: in vivo.
Data set [15] can be described thus: Cmax in Cynomolgus monkey at 1 mg/kg, iv measured upto 24 hrs. Type of data set: ADME, organism-based, Macaca fascicularis. Also on record: route intravenous, dose 1 mg/kg, time <=24. The conditions noted are these: in vivo.
A short description of data set [16]: Oral bioavailability in Cynomolgus monkey rat at 5 mg/kg measured upto 24 hrs. Type of data set: ADME, organism-based, Macaca fascicularis. The following applies: in vivo.
Data set [17] can be described thus: Volume of distribution at steady state in Cynomolgus monkey at 1 mg/kg, iv measured upto 24 hrs. Type of data set: ADME, organism-based, Macaca fascicularis. The following applies: in vivo, read-out: Vdss.
The nature of data set [18]: Toxicity in MPTP-induced C57BL/6 mouse model of Parkinson's disease assessed as effect on locomotor activity by measuring rearing activity at 10 mg/kg, ip pretreated for 15 mins followed by MPTP challenge and measured after 5 days post MPTP challenge. The following applies: in vivo, 120 h, time 5 day. Type of data set: organism-based.
A short description of data set [19]: AUC (0-t) in Cynomolgus monkey at 1 mg/kg, iv measured upto 24 hrs. Type of data set: ADME, organism-based, Macaca fascicularis. The following applies: in vivo, 24 h. More on the design: route intravenous, dose 1 mg/kg, time <=24.
Data set [20] can be described thus: Half life in Cynomolgus monkey rat at 5 mg/kg, po measured upto 24 hrs. Type of data set: ADME, organism-based, Macaca fascicularis. The conditions noted are these: in vivo.

What is called pIC50 is the IC50 on a negative log10 scale, so that one unit is a factor of ten. For the compound `NC(=O)[C@@H]1C[C@H](F)CN1Cc1ccc(OCc2cccc(F)c2)cc1F`, in [1], the negative logarithm of the IC50 (pIC50) was 4.53. Further, in the data set listed under Homo sapiens, the Ratio IC50 came to 979.

In general, AUC(0-t) refers to the area under the concentration-time curve up to a stated or last time point. One may read the Cmax as the maximum level reached in the sampled fluid or tissue. Broadly, the half-life is the time needed for the level to fall by half in the phase considered. For orientation: clearance means the volume of plasma or blood freed of the substance per unit of time. Take `NC(=O)[C@@H]1CCCN1Cc1ccc(OCc2cccc(F)c2)cc1`: the exposure AUC(0-t) at 24 h in data set [2] came out at 347 ng·h/mL; in data set [5], 284 ng·h/mL. The bioavailability in data set [3] amounted to 16.3%. For the same compound, the Cmax is 163 ng/mL in [4] and 809 ng/mL in data set [8]. The Ratio IC50 in the data set filed under Homo sapiens worked out at 168. Also, the half-life is 1.27 h in [6] and 0.37 h in [10]. In [7], the Vd worked out at 1.11 L/kg. In data set [9], this compound yielded a clearance of 47.1 mL/min/kg.

For `Cc1cc(OCc2cccc(F)c2)ccc1CN1C[C@H](F)C[C@H]1C(N)=O`, the pIC50 in [11] is less than 5.00.

As for `NC(=O)[C@@H]1C[C@@H](F)CN1Cc1ccc(OCc2cccc(F)c2)cc1`, the pIC50 in [1] was 4.62; in [11], 6.11. In the data set filed under Homo sapiens, the Ratio IC50 was determined as 31.

In the case of `C[C@H]1C[C@@H](C(N)=O)N(Cc2ccc(OCc3cccc(F)c3)cc2)C1`, the AUC(0-t) at 24 h came to 209 ng·h/mL in [2] and 176 ng·h/mL in [5]. Besides, the bioavailability in data set [3] came out at 16.9%. The Cmax was 69.1 ng/mL in data set [4] and 174 ng/mL in data set [8]. Besides, the results for the pIC50 in data set [1] and in data set [11] were 4.56 and 7.09, respectively. Besides, the Ratio IC50 in the data set filed under Homo sapiens amounted to 335. Further, the half-life is 0.96 h in data set [6] and 0.73 h in data set [10]. In addition, the Vd in [7] was 4.56 L/kg. In addition, the clearance in data set [9] was found to be 79.1 mL/min/kg.

Turning to `C[C@@H]1C[C@@H](C(N)=O)N(Cc2ccc(OCc3cccc(F)c3)cc2)C1`, the pIC50 was 4.38 in data set [1] and 5.66 in [11]. Further, the Ratio IC50 in the data set filed under Homo sapiens turned out to be 19.

As for `Cc1cc(OCc2cccc(F)c2)ccc1CN1C[C@@H](F)C[C@H]1C(N)=O`, the figures for the pIC50 in data set [1] and in data set [11] were 4.69 and 6.09, respectively. Besides, the Ratio IC50 in the data set listed under Homo sapiens stood at 25.

Take `NC(=O)[C@H]1C[C@@H](F)CN1Cc1ccc(OCc2cccc(F)c2)cc1`: in data set [11], the negative-log IC50 (pIC50) was less than 5.00.

In the case of `NC(=O)[C@H]1C[C@H](F)CN1Cc1ccc(OCc2cccc(F)c2)cc1`, the pIC50 in data set [1] was 5.17; in [11] it was 6.15. The Ratio IC50 in the data set listed under Homo sapiens is 10.

As for `NC(=O)[C@@H]1C[C@@H](O)CN1Cc1ccc(OCc2cccc(F)c2)cc1`, the negative logarithm of the IC50 (pIC50) in [11] was less than 5.00.

For `C[C@H](NCc1ccc(OCc2cccc(F)c2)cc1)C(N)=O` [SAFINAMIDE], the AUC(0-t) at 24 h amounted to 253 ng·h/mL in [2], 13100 ng·h/mL in data set [13] and 795 ng·h/mL in [5]. The Cmax in data set [12] was 1970 ng/mL; in data set [4], 423 ng/mL; in [15] it was 1080 ng/mL; in [8] it was 282 ng/mL. Besides, the figures for the bioavailability in data set [3] and in data set [16] were 63.2% and 111%, respectively. The half-life was 2.74 h in data set [14], 1.02 h in data set [6], 4.6 h in data set [20] and 1.03 h in [10]. The Vd in [7] stood at 4.21 L/kg; in data set [17] it was 7.15 L/kg. Further, the Activity entry in data set [18] is “Non-Toxic”. The clearance in data set [9] was 65.5 mL/min/kg. The AUCt in data set [19] worked out at 2120 ng·h/mL.

For the compound `NC(=O)[C@@H]1C[C@H](O)CN1Cc1ccc(OCc2cccc(F)c2)cc1`, the pIC50 was 4.07 in [1] and 6.37 in data set [11]. Also, the Ratio IC50 in the data set filed under Homo sapiens came out at 196.

Turning to `NC(=O)[C@@H]1C[C@H](F)CN1Cc1ccc(OCc2cccc(F)c2)cc1Cl`, the pIC50 in data set [1] was 5.29; in data set [11], 6.85. In addition, the Ratio IC50 in the data set filed under Homo sapiens came out at 37.

On to `NC(=O)[C@@H]1C[C@@H](F)CN1Cc1ccc(OCc2cccc(F)c2)cc1F`, for which the results for the pIC50 in data set [1] and in data set [11] were 4.55 and 5.66, respectively. For the same compound, the Ratio IC50 in the data set listed under Homo sapiens came to 13.

Consider `NC(=O)[C@@H]1C[C@@H](F)CN1Cc1ccc(OCc2cccc(F)c2)cc1Cl`, for which the pIC50 in [11] was less than 5.00.
